Molecular target: T1, mushroom tyrosinase (TYR) (Agaricus bisporus, UniProt C7FF04)
T1 construct: gene PPO3
Experiment: dopachrome assay with L-DOPA substrate; partial inhibition only (maximum about […]; IC20 […])
Type: biochemical

T1 sequence (C7FF04 2-392): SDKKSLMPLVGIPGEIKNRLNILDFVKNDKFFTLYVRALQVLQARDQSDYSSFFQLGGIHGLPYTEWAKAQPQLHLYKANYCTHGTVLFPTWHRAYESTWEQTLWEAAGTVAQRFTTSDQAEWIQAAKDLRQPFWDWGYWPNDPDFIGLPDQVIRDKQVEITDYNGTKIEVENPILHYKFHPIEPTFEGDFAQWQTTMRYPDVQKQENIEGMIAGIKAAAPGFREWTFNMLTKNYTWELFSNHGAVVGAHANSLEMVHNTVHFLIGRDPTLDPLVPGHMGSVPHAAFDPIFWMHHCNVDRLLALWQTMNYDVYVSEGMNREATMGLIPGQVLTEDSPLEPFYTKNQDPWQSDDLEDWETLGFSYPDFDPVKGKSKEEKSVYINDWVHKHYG

Oc1cc(O)c2c(c1)O[C@H](c1ccc(O)c(O)c1)[C@@H](O)C2 [CH, catechin hydrate]
Emax: ~25%

Source: article PMC9919157, “Synergistic Inhibiting Effect of Phytochemicals in Rheum palmatum on Tyrosinase Based on Metabolomics and Isobologram Analyses” (Molecules, 2023)
